Test results published in patent publication US20260167656A1, “PHOSPHORAMIDATE COMPOUNDS AND USES THEREOF” (ALLORION THERAPEUTICS INC, priority 2022, published 2026).

Experiments:
[1] = tested on: non-small cell lung cancer cell line H460; assay: H460 proliferation assay in the presence of 3 uM ASP9521 (AKR1C3 specific inhibitor); type: cell-based, human; conditions: H460 cells, CellTiter-Glo, 72 hours, in the presence of 3 uM ASP9521 added 4 hours prior to compounds; read-out: CTG H460: Avg IC50 (nM) [Assay Condition: ASP9521]
Protocol: (§1) Specifically, exponentially growing cells were seeded at density of 3×10^3 cells per well in 96-well plate and incubated at 37° C. in 5% CO2, 95% air and 100% relative humidity for 24 hours before adding compounds. Compounds were solubilized in 100% DMSO at 10 mM. Compounds were added to the plate using Tecan D300e® digital Dispenser. After drug addition, the plates were incubated for an additional 72 hours at 37° C. in 5% CO2, 95% air and 100% relative humidity. At the end of the incubation, cell viability was quantified with CellTiter-Glo® assay.
To further confirm that compounds were activated by human AKR1C3, H460 proliferation assay were also performed in the presence of 3 uM […], an AKR1C3 specific inhibitor. ASP9521 were added to the plates 4 hours prior to the addition of compounds.

[2] = tested on: non-small cell lung cancer cell line H460; assay: In vitro human cancer cell line cytotoxicity (proliferation) assay in H460, CellTiter-Glo, 72 hours; type: cell-based; conditions: H460 cells, DMSO condition (no AKR1C3 inhibitor), read-out: CTG H460: Avg IC50 (nM) [Assay Condition: DMSO]
Protocol: Biological Example 1. In Vitro Human Cancer Cell Line Cytotoxicity Assay
IC50 values in nanomolar reported here were derived from in vitro proliferation assay data in non-small cell lung cancer cell line H460.
as §1

Structure (SMILES)	IC50 [1]	IC50 [2]	IC50 ([2]; Homo sapiens, NCI-H460, 72 h)
O=C(c1cccc(Oc2c([N+](=O)[O-])ccc3c2CCC3OP(=O)(N2CC2)N2CC2)c1)N1CCCOCC1 (stereo not drawn) [Example 106]	416 nM	< 10 nM	–
[2H]C([2H])([2H])N(C(=O)c1cccc(Oc2cc3cc([C@H](C)OP(=O)(N4CC4)N4CC4)oc3cc2[N+](=O)[O-])c1)C([2H])([2H])[2H] (single isomer, unassigned) [Example 533]	7430 nM	–	10 to 50 nM
O=[N+]([O-])c1cc2c(cc1Oc1ccc(-c3ccccn3)cc1)C(OP(=O)(N1CC1)N1CC1)CC2 (stereo not drawn) [Example 524]	1190 nM	< 10 nM	–
O=[N+]([O-])c1ccc2c(c1Oc1ccc(-c3ccc(F)cn3)cc1)CCC2OP(=O)(N1CC1)N1CC1 (racemic) [Example 276]	1340 nM	< 10 nM	–
CN1CCOc2ccc(Oc3cc4c(cc3[N+](=O)[O-])CCC4OP(=O)(N3CC3)N3CC3)cc2C1=O (stereo not drawn) [Example 158]	4680 nM	–	50 to 100 nM
CC(OP(=O)(N1CC1)N1CC1)c1cc(Oc2ccc(C(=O)N(C)C)cc2)c([N+](=O)[O-])cc1F (stereo not drawn) [Example 8]	1790 nM	–	< 10 nM
CN1Cc2cc(Oc3c([N+](=O)[O-])ccc4c3CCC4OP(=O)(N3CC3)N3CC3)ccc2C1=O (single isomer, unassigned) [Example 42]	123 nM	–	< 10 nM
O=[N+]([O-])c1ccc2c(c1Oc1ccc(-c3ccc(F)cc3)cc1)OCCC2OP(=O)(N1CC1)N1CC1 (stereo not drawn) [Example 133]	1620 nM	10 to 50 nM	–
C[C@H](OP(=O)(N1CC1)N1CC1)c1cc2cc(Oc3cccc(C(=O)N4CCC(F)(F)C4)c3)c([N+](=O)[O-])cc2o1 [Example 558]	3960 nM	10 to 50 nM	–
O=[N+]([O-])c1ccc2c(c1Oc1cc(F)cc(-c3ccc(F)cn3)c1)CC[C@@H]2OP(=O)(N1CC1)N1CC1 [Example 358]	1740 nM	–	< 10 nM
O=C(c1cccc(Oc2c([N+](=O)[O-])ccc3c2CCC3OP(=O)(N2CC2)N2CC2)c1)N1CC(F)(F)C1 (stereo not drawn) [Example 235]	717 nM	–	–
O=[N+]([O-])c1cc2oc(COP(=O)(N3CC3)N3CC3)cc2cc1Oc1cccc(-c2cccnc2)c1 [Example 537]	3710 nM	–	< 10 nM
C[C@@H]1CN1P(=O)(OCc1c(F)c(F)c(OCc2ccc([N+](=O)[O-])c(Oc3cccc(C(=O)N(C)C)c3)c2)c(F)c1F)N1C[C@H]1C (stereo partly drawn) [Example 13]	195 nM	–	< 10 nM
O=[N+]([O-])c1ccc2c(c1Oc1ccc(C(F)(F)F)nc1)CCC2OP(=O)(N1CC1)N1CC1 (stereo not drawn) [Example 25]	92.9 nM	–	< 10 nM
O=C(NC1CC1)c1cccc(Oc2c([N+](=O)[O-])ccc3c2CCC3OP(=O)(N2CC2)N2CC2)c1 (stereo not drawn) [Example 234]	865 nM	–	< 10 nM
O=[N+]([O-])c1ccc2c(c1Oc1ccc(-c3cnn(C4CC4)c3)cc1)CCC2OP(=O)(N1CC1)N1CC1 (stereo not drawn) [Example 78]	1150 nM	≥ 100 nM	–
Cc1noc(-c2cc(Oc3c([N+](=O)[O-])ccc4c3CC[C@@H]4OP(=O)(N3CC3)N3CC3)ccc2F)n1 [Example 326]	1270 nM	–	< 10 nM
O=[N+]([O-])c1ccc2c(c1Oc1cccc(-c3ccccc3)c1)CCC2OP(=O)(N1CC1)N1CC1 (single isomer, unassigned) [Example 30]	1510 nM	–	< 10 nM
Cn1cccc(-c2ccc(Oc3c([N+](=O)[O-])ccc4c3CC[C@H]4OP(=O)(N3CC3)N3CC3)cc2)c1=O [Example 271]	920 nM	< 10 nM	–
O=[N+]([O-])c1ccc2c(c1Oc1ccc(-c3ncc(F)cn3)c(F)c1)CC[C@@H]2OP(=O)(N1CC1)N1CC1 [Example 268, (S)-4-(3-fluoro-4-(5-fluoropyrimidin-2-yl)phenoxy)-5-nitro-2,3-dihydro-1H-inden-1-yl di(aziridin-1-yl)phosphinate]	1110 nM	–	< 10 nM
O=C1COCCN1c1cccc(Oc2c([N+](=O)[O-])ccc3c2CCC3OP(=O)(N2CC2)N2CC2)c1 (stereo not drawn) [Example 109]	6450 nM	–	10 to 50 nM
O=[N+]([O-])c1ccc2c(c1Oc1cccc(-c3ncccn3)c1)CCC2OP(=O)(N1CC1)N1CC1 (stereo not drawn) [Example 85]	5280 nM	< 10 nM	–
O=[N+]([O-])c1ccc2c(c1Oc1cccc(-c3c(F)cnn3CCO)c1)CC[C@@H]2OP(=O)(N1CC1)N1CC1 [Example 371]	591 nM	–	< 10 nM
O=[N+]([O-])c1ccc2c(c1Oc1ccc(-c3ccc(F)cc3)c(F)c1)CCC2OP(=O)(N1CC1)N1CC1 (single isomer, unassigned) [Example 27]	1170 nM	–	< 10 nM

Structure (SMILES)	IC50 [1]	IC50 [2]	IC50 ([2]; Homo sapiens, NCI-H460, 72 h)
Cc1ccnc(-c2ccc(Oc3c([N+](=O)[O-])ccc4c3CC[C@@H]4OP(=O)(N3CC3)N3CC3)cc2)n1 (single isomer, unassigned) [Example 264]	1370 nM	–	< 10 nM
COc1cc(Oc2c([N+](=O)[O-])ccc3c2CC[C@@H]3OP(=O)(N2CC2)N2CC2)cc(-c2ncccn2)c1 [Example 357]	467 nM	–	< 10 nM
O=[N+]([O-])c1ccc2c(c1Oc1cc(F)cc(OCC3CC3)c1)CC[C@@H]2OP(=O)(N1CC1)N1CC1 [Example 503]	1660 nM	–	< 10 nM
Cn1ccc2c(F)cc(Oc3c([N+](=O)[O-])ccc4c3CC[C@@H]4OP(=O)(N3CC3)N3CC3)cc21 (single isomer, unassigned) [Example 377]	1330 nM	–	< 10 nM
O=[N+]([O-])c1ccc2c(c1Oc1ccc(F)c(-n3cccn3)c1)CC[C@@H]2OP(=O)(N1CC1)N1CC1 (single isomer, unassigned) [Example 403]	1460 nM	–	< 10 nM
COc1ccc(Oc2c([N+](=O)[O-])ccc3c2CC[C@@H]3OP(=O)(N2CC2)N2CC2)cc1-c1ncccn1 [Example 294, (S)-4-(4-methoxy-3-(pyrimidin-2-yl)phenoxy)-5-nitro-2,3-dihydro-1H-inden-1-yl di(aziridin-1-yl)phosphinate]	1080 nM	–	< 10 nM
CC(OP(=O)(N1CC1)N1CC1)c1cc2cc(Oc3cccc(C(=O)N(C)C)c3)c([N+](=O)[O-])cc2o1 (single isomer, unassigned) [Example 233]	3890 nM	< 10 nM	–
CN1Cc2cc(Oc3cc4c(cc3[N+](=O)[O-])CCC4OP(=O)(N3CC3)N3CC3)ccc2C1=O (stereo not drawn) [Example 155]	128 nM	< 10 nM	–
CNC(=O)c1ccc(Oc2c([N+](=O)[O-])ccc3c2OCCC3OP(=O)(N2CC2)N2CC2)cc1 (stereo not drawn) [Example 137]	538 nM	< 10 nM	–
O=[N+]([O-])c1ccc2c(c1Oc1cccc(-n3cccn3)c1)CCC2OP(=O)(N1CC1)N1CC1 (stereo not drawn) [Example 114]	1280 nM	< 10 nM	–
Cc1noc(-c2cccc(Oc3c([N+](=O)[O-])ccc4c3CCC4OP(=O)(N3CC3)N3CC3)c2)n1 (stereo not drawn) [Example 304]	2130 nM	–	–
O=C(c1cccc(Oc2c([N+](=O)[O-])ccc3c2CCC3OP(=O)(N2CC2)N2CC2)c1)N1CCCC1 (stereo not drawn) [Example 240]	1150 nM	–	–
O=C1COCCN1c1cccc(Oc2c([N+](=O)[O-])ccc3c2CCC3OP(=O)(N2CC2)N2CC2)c1 (racemic) [Example 405]	871 nM	–	–
O=[N+]([O-])c1ccc2c(c1Oc1cccc(-c3ncccn3)c1)CCC2OP(=O)(N1CC1)N1CC1 (stereo not drawn) [Example 301]	3730 nM	–	–
O=C(c1cccc(Oc2c([N+](=O)[O-])ccc3c2CCC3OP(=O)(N2CC2)N2CC2)c1)N1CCC(F)(F)CC1 (stereo not drawn) [Example 244]	834 nM	–	–
O=C1COCCN1c1cccc(Oc2c([N+](=O)[O-])ccc3c2CCC3OP(=O)(N2CC2)N2CC2)c1 (stereo not drawn) [Example 411]	–	10 to 50 nM	–
O=C1OCCN1c1cccc(Oc2c([N+](=O)[O-])ccc3c2CCC3OP(=O)(N2CC2)N2CC2)c1 (stereo not drawn) [Example 407]	380 nM	–	–
O=C(c1cccc(Oc2c([N+](=O)[O-])ccc3c2CCC3OP(=O)(N2CC2)N2CC2)c1)N1CCC1 (stereo not drawn) [Example 246]	522 nM	–	–
Cn1cc(-c2ccc(Oc3cc4c(cc3[N+](=O)[O-])CCC4OP(=O)(N3CC3)N3CC3)cc2)cn1 (single isomer, unassigned) [Example 521]	1950 nM	–	–
O=C1CCCN1c1cccc(Oc2c([N+](=O)[O-])ccc3c2CCC3OP(=O)(N2CC2)N2CC2)c1 (stereo not drawn) [Example 413]	1180 nM	–	–
O=C1CCCCN1c1cccc(Oc2c([N+](=O)[O-])ccc3c2CCC3OP(=O)(N2CC2)N2CC2)c1 (racemic) [Example 404]	1020 nM	–	–
O=C(c1cccc(Oc2c([N+](=O)[O-])ccc3c2CCC3OP(=O)(N2CC2)N2CC2)c1)N1CCC(F)(F)C1 (stereo not drawn) [Example 242]	1270 nM	–	–
O=C(c1cccc(Oc2c([N+](=O)[O-])ccc3c2CCC3OP(=O)(N2CC2)N2CC2)c1)N1CCC(F)(F)C1 (stereo not drawn) [Example 239]	1060 nM	–	–
O=c1ccccn1-c1cccc(Oc2c([N+](=O)[O-])ccc3c2CCC3OP(=O)(N2CC2)N2CC2)c1 (racemic) [Example 406]	1320 nM	–	–
